Experimental data reported in patent publication US8450266B2 (Ipsen Pharma S.A.S., priority 2008, dated 2013).
Where a SMILES comes first, the peptide text is derived from it. [ ]: non-standard residue; d: D form. The star is where a group is joined. Myristoyl = CCCCCCCCCCCCCC(=O)*; Decanoyl = CCCCCCCCCC(=O)*; Ac6c = NC1(C(=O)O)CCCCC1; Orn = NCCC[C@H](N)C(=O)O; X1 = CCCN1C(=O)CC(*)C1=O; Hexanoyl = CCCCCC(=O)*

Columns and labels:
[1] = Human plasma half-life assay (LC-MS); format: in vitro ADME; conditions: incubated at 37° C., read-out: Human Plasma T½ (converted)
Method: (§1) B. Human and Rat Plasma Half-Life Assay
(§2) 50 μl, was removed at various times, like at 0, 1, 2, 3, 4, 8, 24, 32, 48, 56, 72 hours, mixed with 5 μL formic acid and 150 μL acetonitrile in a microcentrifuge tube, vertexed, and centrifuged for 10 minutes at 10K rpm. The supernatant was transferred to an injection vial and analyzed by LC-MS. The LC-MS system consisted of an API4000 mass spectrometer with an ESI probe. Positive ion mode and full scan detection were used. HPLC separation was carried out on a Luna 3μ C8 (2), 2×30 mm column with a gradient from 90% A to 90% B in 10 minutes at a flow rate of 0.3 ml/min. Buffer A was 1% formic acid in water and buffer B was 1% formic acid acetonitrile.

[2] = Rat plasma half-life assay (LC-MS); format: in vitro ADME; conditions: incubated at 37° C., read-out: Rat Plasma T½ (converted)
Method: as §1, §2

Row | Compound | half-life at 0.1 mg/mL [1] | half-life at 0.1 mg/mL [2] | half-life at 0.1 mg/ml [1] | half-life at 0.1 mg/ml [2]
1 | CCCN1C(=O)CC(SC[C@H](NC(=O)[C@H](CCCCN)NC(=O)[C@H](CCC(N)=O)NC(=O)[C@H](C)NC(=O)[C@H](CC(C)C)NC(=O)[C@H](CC(C)C)NC(=O)[C@H](Cc2c[nH]c3ccccc23)NC(=O)[C@H](CC(N)=O)NC(=O)[C@@H](NC(=O)[C@H](Cc2ccccc2)NC(=O)[C@H](CC(=O)O)NC(=O)[C@H](CCC(N)=O)NC(=O)[C@H](CCC(N)=O)NC(=O)[C@H](Cc2c[nH]cn2)NC(=O)[C@@H](NC(=O)[C@H](CCCCN)NC(=O)[C@H](CC(=O)O)NC(=O)[C@H](CCSC)NC(=O)[C@H](C)NC(=O)[C@@H](NC(=O)[C@H](CO)NC(=O)[C@H](Cc2ccc(O)cc2)NC(=O)[C@H](CC(=O)O)NC(=O)[C@H](CO)NC(=O)C2(NC(C)=O)CCCCC2)[C@@H](C)CC)[C@@H](C)CC)C(C)C)C(=O)N[C@@H](CCCCN)C(=O)N[C@@H](CCCCN)C(=O)N[C@@H](CC(N)=O)C(=O)N[C@@H](CC(=O)O)C(=O)N[C@@H](Cc2c[nH]c3ccccc23)C(=O)N[C@@H](CCCCN)C(=O)N[C@@H](Cc2c[nH]cn2)C(=O)N[C@@H](CC(N)=O)C(=O)N[C@H](C(=O)N[C@H](C(=O)N[C@@H](CCC(N)=O)C(=O)O)[C@@H](C)O)[C@@H](C)CC)C1=O (stereo partly drawn) [Example 10, [Ac-A6c^7, Cys(Psu)^31]hGIP(7-42)-OH] (Ac-[Ac6c]SDYSIAMDKIHQQDFVNWLLAQKC(X1)KKNDWKHNITQ-OH) | 8 h | 2.6 h |  | 
2 | CCCCCCCCCCCCCC(=O)NCCC[C@H](NC(=O)[C@H](CCCCN)NC(=O)[C@H](CCC(N)=O)NC(=O)[C@H](C)NC(=O)[C@H](CC(C)C)NC(=O)[C@H](CC(C)C)NC(=O)[C@H](Cc1c[nH]c2ccccc12)NC(=O)[C@H](CC(N)=O)NC(=O)[C@@H](NC(=O)[C@H](Cc1ccccc1)NC(=O)[C@H](CC(=O)O)NC(=O)[C@H](CCC(N)=O)NC(=O)[C@H](CCC(N)=O)NC(=O)[C@H](Cc1c[nH]cn1)NC(=O)[C@@H](NC(=O)[C@H](CCCCN)NC(=O)[C@H](CC(=O)O)NC(=O)[C@H](CCSC)NC(=O)[C@H](C)NC(=O)[C@@H](NC(=O)[C@H](CO)NC(=O)[C@H](Cc1ccc(O)cc1)NC(=O)[C@H](CC(=O)O)NC(=O)[C@H](CO)NC(=O)C1(NC(C)=O)CCCCC1)[C@@H](C)CC)[C@@H](C)CC)C(C)C)C(=O)N[C@@H](CCCCN)C(=O)N[C@@H](CCCCN)C(=O)N[C@@H](CC(N)=O)C(=O)N[C@@H](CC(=O)O)C(=O)N[C@@H](Cc1c[nH]c2ccccc12)C(=O)N[C@@H](CCCCN)C(=O)N[C@@H](Cc1c[nH]cn1)C(=O)N[C@@H](CC(N)=O)C(=O)N[C@H](C(=O)N[C@H](C(=O)N[C@@H](CCC(N)=O)C(=O)O)[C@@H](C)O)[C@@H](C)CC [Example 12, [Ac-A6c^7, Orn^31(N-C(O)-(CH2)12-CH3)]hGIP(7-42)-OH] (Ac-[Ac6c]SDYSIAMDKIHQQDFVNWLLAQK[Orn](Myristoyl)KKNDWKHNITQ-OH) | 7.3 h | > 72 h |  | 
3 | CCCCCCCCCC(=O)NCCC[C@H](NC(=O)[C@H](CCCCN)NC(=O)[C@H](CCC(N)=O)NC(=O)[C@H](C)NC(=O)[C@H](CC(C)C)NC(=O)[C@H](CC(C)C)NC(=O)[C@H](Cc1c[nH]c2ccccc12)NC(=O)[C@H](CC(N)=O)NC(=O)[C@@H](NC(=O)[C@H](Cc1ccccc1)NC(=O)[C@H](CC(=O)O)NC(=O)[C@H](CCC(N)=O)NC(=O)[C@H](CCC(N)=O)NC(=O)[C@H](Cc1c[nH]cn1)NC(=O)[C@@H](NC(=O)[C@H](CCCCN)NC(=O)[C@H](CC(=O)O)NC(=O)[C@H](CCSC)NC(=O)[C@H](C)NC(=O)[C@@H](NC(=O)[C@H](CO)NC(=O)[C@H](Cc1ccc(O)cc1)NC(=O)[C@H](CC(=O)O)NC(=O)[C@H](CO)NC(=O)C1(NC(C)=O)CCCCC1)[C@@H](C)CC)[C@@H](C)CC)C(C)C)C(=O)N[C@@H](CCCCN)C(=O)N[C@@H](CCCCN)C(=O)N[C@@H](CC(N)=O)C(=O)N[C@@H](CC(=O)O)C(=O)N[C@@H](Cc1c[nH]c2ccccc12)C(=O)N[C@@H](CCCCN)C(=O)N[C@@H](Cc1c[nH]cn1)C(=O)N[C@@H](CC(N)=O)C(=O)N[C@H](C(=O)N[C@H](C(=O)N[C@@H](CCC(N)=O)C(=O)O)[C@@H](C)O)[C@@H](C)CC [Example 13, [Ac-A6c^7, Orn^31(N-C(O)-(CH2)8-CH3)]hGIP(7-42)-OH] (Ac-[Ac6c]SDYSIAMDKIHQQDFVNWLLAQK[Orn](Decanoyl)KKNDWKHNITQ-OH) |  |  | 17.8 h | 19 h
4 | CCCCCCCCCC(=O)NCCC[C@H](NC(=O)[C@H](CCCCN)NC(=O)[C@H](CCC(N)=O)NC(=O)[C@H](C)NC(=O)[C@H](CC(C)C)NC(=O)[C@H](CC(C)C)NC(=O)[C@H](Cc1c[nH]c2ccccc12)NC(=O)[C@H](CC(N)=O)NC(=O)[C@@H](NC(=O)[C@H](Cc1ccccc1)NC(=O)[C@H](CC(=O)O)NC(=O)[C@H](CCC(N)=O)NC(=O)[C@H](CCC(N)=O)NC(=O)[C@H](Cc1c[nH]cn1)NC(=O)[C@@H](NC(=O)[C@H](CCCCN)NC(=O)[C@H](CC(=O)O)NC(=O)[C@H](CCSC)NC(=O)[C@H](C)NC(=O)[C@@H](NC(=O)[C@H](CO)NC(=O)[C@H](Cc1ccc(O)cc1)NC(=O)[C@H](CC(=O)O)NC(=O)[C@H](CO)NC(=O)C1(N)CCCCC1)[C@@H](C)CC)[C@@H](C)CC)C(C)C)C(=O)N[C@@H](CCCCN)C(=O)N[C@@H](CCCCN)C(=O)N[C@@H](CC(N)=O)C(=O)N[C@@H](CC(=O)O)C(=O)N[C@@H](Cc1c[nH]c2ccccc12)C(=O)N[C@@H](CCCCN)C(=O)N[C@@H](Cc1c[nH]cn1)C(=O)N[C@@H](CC(N)=O)C(=O)N[C@H](C(=O)N[C@H](C(=O)N[C@@H](CCC(N)=O)C(=O)O)[C@@H](C)O)[C@@H](C)CC [Example 14, [A6c^7, Orn^31(N-C(O)-(CH2)8-CH3)]hGIP(7-42)-OH] (H-[Ac6c]SDYSIAMDKIHQQDFVNWLLAQK[Orn](Decanoyl)KKNDWKHNITQ-OH) |  |  | 4.1 h | 15.3 h
5 | CCCCCCCCCC(=O)NCCC[C@H](NC(=O)[C@H](CCCCN)NC(=O)[C@H](CCC(N)=O)NC(=O)[C@H](C)NC(=O)[C@H](CC(C)C)NC(=O)[C@H](CC(C)C)NC(=O)[C@H](Cc1c[nH]c2ccccc12)NC(=O)[C@H](CC(N)=O)NC(=O)[C@@H](NC(=O)[C@H](Cc1ccccc1)NC(=O)[C@H](CC(=O)O)NC(=O)[C@H](CCC(N)=O)NC(=O)[C@H](CCC(N)=O)NC(=O)[C@H](Cc1c[nH]cn1)NC(=O)[C@@H](NC(=O)[C@H](CCCCN)NC(=O)[C@H](CC(=O)O)NC(=O)[C@H](CCSC)NC(=O)[C@H](C)NC(=O)[C@@H](NC(=O)[C@H](CO)NC(=O)[C@H](Cc1ccc(O)cc1)NC(=O)[C@H](CC(=O)O)NC(=O)[C@H](CO)NC(=O)C1(NC(=O)CCCCCCCCC)CCCCC1)[C@@H](C)CC)[C@@H](C)CC)C(C)C)C(=O)N[C@@H](CCCCN)C(=O)N[C@@H](CCCCN)C(=O)N[C@@H](CC(N)=O)C(=O)N[C@@H](CC(=O)O)C(=O)N[C@@H](Cc1c[nH]c2ccccc12)C(=O)N[C@@H](CCCCN)C(=O)N[C@@H](Cc1c[nH]cn1)C(=O)N[C@@H](CC(N)=O)C(=O)N[C@H](C(=O)N[C@H](C(=O)N[C@@H](CCC(N)=O)C(=O)O)[C@@H](C)O)[C@@H](C)CC [Example 15, [CH3-(CH2)8-C(O)-A6c^7, Orn^31(N-C(O)-(CH2)8-CH3)]hGIP(7-42)-OH] (Decanoyl-[Ac6c]SDYSIAMDKIHQQDFVNWLLAQK[Orn](Decanoyl)KKNDWKHNITQ-OH) |  |  | 5.2 h | > 72 h
6 | CCCCCC(=O)NCCC[C@H](NC(=O)[C@H](CCCCN)NC(=O)[C@H](CCC(N)=O)NC(=O)[C@H](C)NC(=O)[C@H](CC(C)C)NC(=O)[C@H](CC(C)C)NC(=O)[C@H](Cc1c[nH]c2ccccc12)NC(=O)[C@H](CC(N)=O)NC(=O)[C@@H](NC(=O)[C@H](Cc1ccccc1)NC(=O)[C@H](CC(=O)O)NC(=O)[C@H](CCC(N)=O)NC(=O)[C@H](CCC(N)=O)NC(=O)[C@H](Cc1c[nH]cn1)NC(=O)[C@@H](NC(=O)[C@H](CCCCN)NC(=O)[C@H](CC(=O)O)NC(=O)[C@H](CCSC)NC(=O)[C@H](C)NC(=O)[C@@H](NC(=O)[C@H](CO)NC(=O)[C@H](Cc1ccc(O)cc1)NC(=O)[C@H](CC(=O)O)NC(=O)[C@H](CO)NC(=O)C1(NC(C)=O)CCCCC1)[C@@H](C)CC)[C@@H](C)CC)C(C)C)C(=O)N[C@@H](CCCCN)C(=O)N[C@@H](CCCCN)C(=O)N[C@@H](CC(N)=O)C(=O)N[C@@H](CC(=O)O)C(=O)N[C@@H](Cc1c[nH]c2ccccc12)C(=O)N[C@@H](CCCCN)C(=O)N[C@@H](Cc1c[nH]cn1)C(=O)N[C@@H](CC(N)=O)C(=O)N[C@H](C(=O)N[C@H](C(=O)N[C@@H](CCC(N)=O)C(=O)O)[C@@H](C)O)[C@@H](C)CC [Example 16, [Ac-A6c^7, Orn^31(N-C(O)-(CH2)4-CH3)]hGIP(7-42)-OH] (Ac-[Ac6c]SDYSIAMDKIHQQDFVNWLLAQK[Orn](Hexanoyl)KKNDWKHNITQ-OH) |  |  | > 50 h | 30 h
